Test results reported in patent US20160212997A1, “AGRICULTURAL CHEMICALS” (REDAG CROP PROTECTION LTD, priority 2013, published 2016).
Where two headings read alike, the source gives them in different places.

Columns and labels:
[1] = test system: caterpillars, a mixture of Mamestra brassicae and Lacanobia oleracea; experiment: Potter tower spray on caterpillars, knockdown and mortality; assay type: in vivo; details: for pest or weed control at 0.000125 % strength / pest or weed control at 0.00025 % strength / pest or weed control at 0.0005 % strength / pest or weed control at 0.001 % strength / pest or weed control at 0.002 % strength / pest or weed control at 0.003125 % strength / pest or weed control at 0.00625 % strength / pest or weed control at 0.0125 % strength / pest or weed control at 0.025 % strength / pest or weed control at 0.05 % strength: read-out: Average of % corrected affected; for pest or weed control at 0.003125 % strength / pest or weed control at 0.00625 % strength / pest or weed control at 0.0125 % strength / pest or weed control at 0.025 % strength / pest or weed control at 0.05 % strength / Average of % corrected affected: Caterpillars; for pest or weed control at 0.00625 % strength: 0.00625 % w/v; for pest or weed control at 0.05 % strength: 0.05 % w/v
From the text: (§1) Myzus persicae, Cabbage moth, Mamestra brassicae, diamond back moths, Plutella xylostella, red spider mites, Tetranychus urticae, whitefly, Trialeurodes vaporariorum, were obtained from specified laboratory cultures. Mixed sex and age aphids and mites, moth larvae and whitefly scale infested leaves were used in the experiments. Environmental conditions were closely monitored and recorded and were within the optimal range of the target species.
(§2) The compounds were screened at a range of five concentrations, diluted in DMSO. Some of the compounds were screened against aphids, whitefly and red spider mites and other compounds were screened against cabbage moth, and diamond black moths. A carrier only and an untreated control will also be conducted. Treatments were applied directly onto the insects within Petri dishes, using a potter tower.
(§3) Twenty mites and ten aphids, scales and moth larvae were placed within a Petri dish, lined with a suitable leaf disc on a damp cotton wool pad. Scales were already on leaves. The Petri dishes were then sprayed using a potter tower. The number of knocked down and anthropods were assessed at 24 and 48 hours post treatment. Five replicates were be performed for each treatment, for each species.
(§4) For Tables 2, 4, 5 and 6, the compounds were diluted in DMSO containing 1% v/v Tween 20™. For Tables 2, 4, 5 and 6, the caterpillars were a mixture of Mamestra brassicae and Lacanobia oleracea.

aphids, Myzus persicae = experiment: Potter tower spray on aphids, knockdown and mortality; assay type: in vivo; details: for pest or weed control at 0.000125 % strength / pest or weed control at 0.00025 % strength / pest or weed control at 0.0005 % strength / pest or weed control at 0.001 % strength / pest or weed control at 0.002 % strength / pest or weed control at 0.003125 % strength / pest or weed control at 0.00625 % strength / pest or weed control at 0.0125 % strength / pest or weed control at 0.025 % strength / pest or weed control at 0.05 % strength: Myzus persicae, read-out: Average of % corrected affected; for pest or weed control at 0.003125 % strength / pest or weed control at 0.00625 % strength / pest or weed control at 0.0125 % strength / pest or weed control at 0.025 % strength / pest or weed control at 0.05 % strength / Average of % corrected affected: Aphids; for pest or weed control at 0.003125 % strength: 0.003125 % w/v
From the text: The compounds were screened for insecticidal efficacy against aphids, Myzus persicae, Cabbage moth, Mamestra brassicae, diamond black moths, Plutella xylostella, red spider mites, Tetranychus urticae, whitefly, Trialeurodes vaporariorum, in terms of knockdown and mortality.
as §1, §2, §3, §4

[2] = 24 h, 0.003125 % w/v, 24 hours post application
[3] = 24 h, 24 hours post application
[4] = 24 h, 0.0125 % w/v, 24 hours post application
[5] = 24 h, 0.025 % w/v, 24 hours post application
[6] = 48 h, 0.003125 % w/v, 48 hours post application
[7] = 48 h, 48 hours post application
[8] = 48 h, 0.0125 % w/v, 48 hours post application
[9] = 48 h, 0.025 % w/v, 48 hours post application
[10] = 24 h, 0.00625 % w/v, 24 hours post application
[11] = 24 h, 0.05 % w/v, 24 hours post application
[12] = 48 h, 0.05 % w/v, 48 hours post application
[13] = 0.0125 % w/v, 48 hours post application
[14] = 0.025 % w/v, 24 hours post application
[15] = 0.025 % w/v, 48 hours post application

Cc1cc(C2=NOC(c3cc(Cl)cc(Cl)c3)(C(F)(F)F)C2)sc1SCC(=O)NCC(F)(F)F (centres unmarked) [Compound 20, 2-[[5-[5-(3,5-dichlorophenyl)-5-(trifluoromethyl)-4H-isoxazol-3-yl]-3-methyl-2-thienyl]sulfanyl]-N-(2,2,2-trifluoroethyl)acetamide] was tested, and the “control over caterpillars compared with reference compound 15” value ([1]; 0.002% concentration) was “more control”, the pest or weed control at 0.000125 % strength ([1]; 24 h) was 1 to 19% and the pest or weed control at 0.00025 % strength ([1]; 24 h) was 1 to 19%. The pest or weed control at 0.0005 % strength ([1]; 24 h) was 1 to 19%, the pest or weed control at 0.001 % strength ([1]; 24 h) was 1 to 19% and the pest or weed control at 0.002 % strength ([1]; 24 h) was 20 to 39%. For the same molecule, the pest or weed control at 0.000125 % strength ([1]; 48 h) was 1 to 19%, the pest or weed control at 0.00025 % strength ([1]; 48 h) was 1 to 19% and the pest or weed control at 0.0005 % strength ([1]; 48 h) was 1 to 19%. For the same molecule, the pest or weed control at 0.001 % strength ([1]; 48 h) was 1 to 19%, the pest or weed control at 0.002 % strength ([1]; 48 h) was 20 to 39% and the “control over aphids compared with reference compound 15” value (aphids, Myzus persicae; 0.002% concentration) was “more control”. It also gave a pest or weed control at 0.000125 % strength (aphids, Myzus persicae; 24 h) of 1 to 19%, a pest or weed control at 0.00025 % strength (aphids, Myzus persicae; 24 h) of 1 to 19% and a pest or weed control at 0.0005 % strength (aphids, Myzus persicae; 24 h) of 1 to 19%. The pest or weed control at 0.001 % strength (aphids, Myzus persicae; 24 h) was 1 to 19%, the pest or weed control at 0.002 % strength (aphids, Myzus persicae; 24 h) was 1 to 19% and the pest or weed control at 0.000125 % strength (aphids, Myzus persicae; 48 h) was 1 to 19%. The pest or weed control at 0.00025 % strength (aphids, Myzus persicae; 48 h) was 1 to 19%, the pest or weed control at 0.0005 % strength (aphids, Myzus persicae; 48 h) was 1 to 19% and the pest or weed control at 0.001 % strength (aphids, Myzus persicae; 48 h) was 1 to 19%. The pest or weed control at 0.002 % strength (aphids, Myzus persicae; 48 h) was 20 to 39%.
In the case of Cc1cc(C2=NOC(c3cc(Cl)cc(Cl)c3)(C(F)(F)F)C2)ccc1SC1CCNC1=O (centres unmarked) [Compound 21, 3-[4-[5-(3,5-dichlorophenyl)-5-(trifluoromethyl)-4H-isoxazol-3-yl]-2-methyl-phenyl]sulfanylpyrrolidin-2-one], the pest or weed control at 0.000125 % strength ([1]; 24 h) is reported as 1 to 19%, the pest or weed control at 0.00025 % strength ([1]; 24 h) is reported as 1 to 19% and the pest or weed control at 0.0005 % strength ([1]; 24 h) is reported as 0%. For the same molecule, the pest or weed control at 0.001 % strength ([1]; 24 h) was 1 to 19%, the pest or weed control at 0.002 % strength ([1]; 24 h) was 1 to 19% and the pest or weed control at 0.000125 % strength ([1]; 48 h) was 1 to 19%. The pest or weed control at 0.00025 % strength ([1]; 48 h) was 1 to 19%, the pest or weed control at 0.0005 % strength ([1]; 48 h) was 1 to 19% and the pest or weed control at 0.001 % strength ([1]; 48 h) was 1 to 19%. The pest or weed control at 0.002 % strength ([1]; 48 h) was 1 to 19%, the pest or weed control at 0.000125 % strength (aphids, Myzus persicae; 24 h) was 20 to 39% and the pest or weed control at 0.00025 % strength (aphids, Myzus persicae; 24 h) was 1 to 19%. For the same molecule, the pest or weed control at 0.0005 % strength (aphids, Myzus persicae; 24 h) was 1 to 19%, the pest or weed control at 0.001 % strength (aphids, Myzus persicae; 24 h) was 1 to 19% and the pest or weed control at 0.002 % strength (aphids, Myzus persicae; 24 h) was 1 to 19%. For the same molecule, the pest or weed control at 0.000125 % strength (aphids, Myzus persicae; 48 h) was 20 to 39%, the pest or weed control at 0.00025 % strength (aphids, Myzus persicae; 48 h) was 1 to 19% and the pest or weed control at 0.0005 % strength (aphids, Myzus persicae; 48 h) was 1 to 19%. It also gave a pest or weed control at 0.001 % strength (aphids, Myzus persicae; 48 h) of 1 to 19% and a pest or weed control at 0.002 % strength (aphids, Myzus persicae; 48 h) of 20 to 39%.
Molecule O=C(Nc1ccc(-c2cccnc2)oc1=O)C1CC1 [Compound 25, N-[2-Oxo-6-(3-pyridyl)pyran-3-yl]cyclopropanecarboxamide, reference compound] has a pest or weed control at 0.003125 % strength [1, 2] of 0%, a pest or weed control at 0.00625 % strength [1, 3] of 1 to 19% and a pest or weed control at 0.0125 % strength [1, 4] of 1 to 19%. The pest or weed control at 0.025 % strength [1, 5] was 1 to 19%, the pest or weed control at 0.05 % strength [1, 3] was 1 to 19% and the pest or weed control at 0.003125 % strength [1, 6] was 1 to 19%. It also gave a pest or weed control at 0.00625 % strength [1, 7] of 1 to 19%, a pest or weed control at 0.0125 % strength [1, 8] of 1 to 19% and a pest or weed control at 0.025 % strength [1, 9] of 20 to 39%. For the same molecule, the pest or weed control at 0.05 % strength [1, 7] was 1 to 19%, the pest or weed control at 0.003125 % strength (aphids, Myzus persicae; [3]) was 1 to 19% and the pest or weed control at 0.00625 % strength (aphids, Myzus persicae; [10]) was 20 to 39%. It also gave a pest or weed control at 0.0125 % strength (aphids, Myzus persicae; [4]) of 20 to 39%, a pest or weed control at 0.025 % strength (aphids, Myzus persicae; [5]) of 40 to 59% and a pest or weed control at 0.05 % strength (aphids, Myzus persicae; [11]) of 1 to 19%. For the same molecule, the pest or weed control at 0.003125 % strength (aphids, Myzus persicae; [7]) was 1 to 19%, the pest or weed control at 0.00625 % strength (aphids, Myzus persicae; 48 h, 0.00625 % w/v, 48 hours post application) was 20 to 39% and the pest or weed control at 0.0125 % strength (aphids, Myzus persicae; [8]) was 20 to 39%. The pest or weed control at 0.025 % strength (aphids, Myzus persicae; [9]) was 60 to 79% and the pest or weed control at 0.05 % strength (aphids, Myzus persicae; [12]) was 40 to 59%.
In the case of O=C(Nc1ccc(-c2cncnc2)oc1=O)C1CC1 [Compound 26, N-[2-Oxo-6-(5-pyrimidyl)pyran-3-yl]cyclopropanecarboxamide], the “control against caterpillars compared with reference compound 25” value ([1]; 0.05%) is reported as “greater control”, the pest or weed control at 0.003125 % strength [1, 2] is reported as 1 to 19% and the pest or weed control at 0.0125 % strength [1, 4] is reported as 1 to 19%. For the same molecule, the pest or weed control at 0.025 % strength [1, 5] was 1 to 19%, the pest or weed control at 0.003125 % strength [1, 6] was 1 to 19% and the pest or weed control at 0.0125 % strength [1, 8] was 1 to 19%. The pest or weed control at 0.025 % strength [1, 9] was 1 to 19%, the “Average of % corrected affected” value ([1]; 0.003125 % w/v, 24 hours post application) was “E (A percentage control of from 1 to 19 is indicated by the letter E)” and the “Average of % corrected affected” value ([1]; 0.003125 % w/v, 48 hours post application) was “E (A percentage control of from 1 to 19 is indicated by the letter E)”. For the same molecule, the “Average of % corrected affected” value ([1]; 0.0125 % w/v, 24 hours post application) was “E (A percentage control of from 1 to 19 is indicated by the letter E)”, the “Average of % corrected affected” value [1, 13] was “E (A percentage control of from 1 to 19 is indicated by the letter E)” and the “Average of % corrected affected” value [1, 14] was “E (A percentage control of from 1 to 19 is indicated by the letter E)”. For the same molecule, the “Average of % corrected affected” value [1, 15] was “E (A percentage control of from 1 to 19 is indicated by the letter E)”, the “Average of % corrected affected” value (aphids, Myzus persicae; 0.00625 % w/v, 24 hours post application) was “E (A percentage control of from 1 to 19 is indicated by the letter E)” and the “Average of % corrected affected” value (aphids, Myzus persicae; [13]) was “E (A percentage control of from 1 to 19 is indicated by the letter E)”. For the same molecule, the “Average of % corrected affected” value (aphids, Myzus persicae; [14]) was “E (A percentage control of from 1 to 19 is indicated by the letter E)”, the “Average of % corrected affected” value (aphids, Myzus persicae; [15]) was “E (A percentage control of from 1 to 19 is indicated by the letter E)” and the “Average of % corrected affected” value (aphids, Myzus persicae; 0.05 % w/v, 24 hours post application) was “E (A percentage control of from 1 to 19 is indicated by the letter E)”. For the same molecule, the “Average of % corrected affected” value (aphids, Myzus persicae; 0.05 % w/v, 48 hours post application) was “E (A percentage control of from 1 to 19 is indicated by the letter E)”, the pest or weed control at 0.00625 % strength (aphids, Myzus persicae; [10]) was 1 to 19% and the pest or weed control at 0.025 % strength (aphids, Myzus persicae; [5]) was 1 to 19%. For the same molecule, the pest or weed control at 0.05 % strength (aphids, Myzus persicae; [11]) was 1 to 19%, the pest or weed control at 0.0125 % strength (aphids, Myzus persicae; [8]) was 1 to 19% and the pest or weed control at 0.05 % strength (aphids, Myzus persicae; [12]) was 1 to 19%.
